According to patent US20120321610A1, “METHOD TO INHIBIT NEUROPATHIC PAIN BY INTRATHECAL INJECTION OF PROTEIN PHOSPHATASES” (priority 2011, published 2012):

Tests used:
Assay type in all cases: in vivo, rat
[1] = tested on: control, uninjured animals; assay: Mechanical withdrawal threshold in control, uninjured animals after intrathecal injection; conditions: uninjured rats
Text: (§1) An automated instrument was used for assessing touch sensitivity. An animal was placed inside a plastic box on a raised plasticized wire-mesh surface. The animal is free to move within the confines of the box. The animal acclimates to the apparatus, and a touch stimulator unit was then slid under the animal to position a stainless steel filament (0.5 mm diameter) under the plantar surface of a paw. A button press causes the filament to move perpendicularly to the tested paw. The filament exerts an increasing force, starting below the threshold of detection and increases until the animal withdraws the paw. The force applied to the filament that results in paw withdrawal was recorded.
(§2) For both behaviors, the ipsilateral, injured, paw was tested four times to obtain an average value. Each test is separated by 5 min. Persons performing behavioral tests are blinded to treatment whenever possible.
The animals were anesthetized with isoflurane and securely held in the sternal position. A 25 μl Hamilton-brand microsyringe was fitted with a 25-gauge, 1-inch hypodermic needle and the needle inserted between the dorsal aspects of L5 and L6 perpendicular to the vertebral column. This site corresponds to the region where the spinal cord ends and the cauda equina begins and was chosen to reduce the possibility of spinal damage. […]

[2] = tested on: calcineurin Aα isoform; assay: Immunoblot of calcineurin Aα content in the post-synaptic density of spinal dorsal horn neurons after intrathecal injection; conditions: CCI rats; 90 min after single intrathecal injection of 100 units; vs saline; FIG. 7
Experimental: (§3) Animals were anesthetized with isoflurane and while still deeply anesthetized were euthanized with an intracardiac injection of super-saturated potassium chloride (>350 mg/ml). A laminectomy was used to rapidly (<2 min) expose the lumbar spinal cord at L5. About 1 cm of the cord was excised and placed into a Petri dish containing dry-ice-cold saline or homogenizing buffer. Subsequently, the cord was cut under a dissecting microscope into dorsal and ventral halves, and the dorsal half further divided into ipsilateral and contralateral quadrants. All tissues were immediately placed into dry-ice cooled collecting tubes, and stored at −80° C. until used.
(§4) Calcineurin activity was obtained with a commercial kit (Enzo Life Sciences, Plymouth Meeting, Pa.) and expressed as nmol of phosphate released/min/mg of protein. Immunoblots were performed as described previously (Miletic et al., 2002). Calcineurin isoform […] (Millipore, Billerica, Mass.) was used at a dilution of 1:1000. Developed membranes were stripped and re-probed with beta III tubulin (1:1000; Promega, Madison, Wis.) as the loading control. Protein levels were estimated with the BioSpectrum 500 Image Analysis System (UVP, Upland, Calif.). The calcineurin Aα content within a gel was expressed over the beta III tubulin content, and then the content in sham-operated or CCI animals was normalized to those in control animals. […]

[3] = tested on: CCI animals (chronic constriction injury of the sciatic nerve); assay: Thermal withdrawal latency in CCI animals after intrathecal injection; conditions: for analgesia, thermal latency threshold: group data, 100 units intrathecal, FIG. 13
Experimental: (§5) Thermal sensitivity is assessed using the hindpaw withdrawal test to a thermal noxious stimulus. An animal was placed inside a plastic box on a raised glass surface. The animal is free to move within the confines of the box. A movable, focused beam of radiant heat was placed under the glass on which the animal is resting a paw. The glass is progressively heated until a noxious threshold was reached to elicit paw withdrawal. As soon as the animal moved its paw, a photocell in the metal enclosure containing the heat source turned off the light. The latency (in sec) for the animal to withdraw its paw was recorded by a digital automatic display.
as §2
(§6) Animals were anesthetized with isoflurane and prepared for surgery by clipping the hair over the mid-thigh area of the left hind leg, scrubbing the clipped area with povidone iodine and alcohol (repeated three times), and lubricating the eyes with sterile ophthalmic ointment. The sciatic nerve was exposed at mid-thigh level by blunt dissection through the biceps femoris muscles. The nerve was freed of adherent tissue, and four ligatures (4.0 chromic gut) were spaced about 1 mm apart. Care was taken to tie the ligatures so that the nerve trunk is just barely constricted when viewed with a dissecting microscope at 40×. […] The incision was closed in layers using chromic gut sutures for muscle and silk sutures for skin.
(§7) A stock solution of calcineurin enzyme at a concentration of 100 units/microliter is commercially available (Enzo Life Sciences, Plymouth Meeting, Pa., Cat. No. BML-SE163-5000). The stock solution was diluted 1:10 with saline (1 part of calcineurin stock solution+9 parts of saline) to make a diluted calcineurin solution of 10 units/microliter. Ten microliters of the diluted calcineurin solution was then injected intrathecally. In other words the dose is 100 units of calcineurin per animal. Animal weights were approximately 200 to 250 g. This equates to a dosage of roughly 3 μg/kg body weight (in the rat).
(§8) The animals were anesthetized with isoflurane and securely held in the sternal position. A 25 μl Hamilton-brand microsyringe was fitted with a 25-gauge, 1-inch hypodermic needle and the needle inserted between the dorsal aspects of L5 and L6 perpendicular to the vertebral column. This site corresponds to the region where the spinal cord ends and the cauda equina begins and was chosen to reduce the possibility of spinal damage. The needle was advanced until a slight but noticeable movement of the tail or the leg was observed. […] Drugs were injected in a volume of 10 μl and the syringe was held in place for a few seconds before being progressively and slowly withdrawn to avoid drug outflow. The rat then recovers from the anesthesia.

[4] = tested on: control, uninjured animals; assay: Thermal withdrawal latency in control, uninjured animals after intrathecal injection; conditions: uninjured rats
Experimental: as §5, §2
The animals were anesthetized with isoflurane and securely held in the sternal position. A 25 μl Hamilton-brand microsyringe was fitted with a 25-gauge, 1-inch hypodermic needle and the needle inserted between the dorsal aspects of L5 and L6 perpendicular to the vertebral column. This site corresponds to the region where the spinal cord ends and the cauda equina begins and was chosen to reduce the possibility of spinal damage. The needle was advanced until a slight but noticeable movement of the tail or the leg was observed. […]

[5] = tested on: CCI animals (chronic constriction injury of the sciatic nerve); assay: Mechanical withdrawal threshold in CCI animals after intrathecal injection; conditions: for analgesia, mechanical stimulus threshold: group data, FIG. 12
Text: as §1, §2, §6, §7, §8

[6] = tested on: calcineurin; assay: Calcineurin activity in the PSD after intrathecal injection (commercial kit); conditions: control, uninjured rats; 90 minutes after intrathecal injection; vs saline; FIG. 16
Experimental: as §3, §4

## calcineurin
[1]; single intrathecal injection, FIG. 10
  behavior, mechanical stimulation: not modified
[2]
  calcineurin Act in ipsilateral PSD: significantly more
[3]; CCI rats 7 days post-ligation, 100 units in 10 μl intrathecal, retested 90 min after injection, FIG. 6
  thermal hypersensitivity: significantly attenuated
[3]; CCI rats, 2-day post-injection group
  analgesia, thermal latency threshold: provided analgesia
[3]; CCI rats, 4-day post-injection group
  analgesia, thermal latency threshold: provided analgesia
[3]; CCI rats, 6-day post-injection group
  analgesia, thermal latency threshold: disappeared
[3]; CCI rats, single intrathecal injection 100 units, 2 days after injection, continuous, FIG. 9
  thermal hypersensitivity: significantly attenuated
[3]; CCI rats, single intrathecal injection 100 units, 4 days after injection, continuous, FIG. 9
  thermal hypersensitivity: continued to exhibit analgesia
[3]; CCI rats, single intrathecal injection 100 units, 6 days after injection, continuous, FIG. 9
  thermal hypersensitivity: exhibited once again mechanical and thermal hypersensitivity
[4]; single intrathecal injection, FIG. 11
  behavior, thermal stimulation: not modified
[5]; CCI rats 7 days post-ligation, 100 units in 10 μl intrathecal, retested 90 min after injection, FIG. 5
  mechanical hypersensitivity: significantly attenuated
[5]; CCI rats, 100 units intrathecal, mechanical and thermal tests
  duration of pain relief from a single intrathecal injection: ≥ 4 days
[5]; CCI rats, 2-day post-injection group, 100 units intrathecal
  analgesia, mechanical stimulus threshold: provided analgesia
[5]; CCI rats, 4-day post-injection group, 100 units intrathecal
  analgesia, mechanical stimulus threshold: provided analgesia
[5]; CCI rats, 6-day post-injection group, 100 units intrathecal
  analgesia, mechanical stimulus threshold: disappeared
[5]; CCI rats, single intrathecal injection 100 units, 2 days after injection, same animals retested (continuous), FIG. 8
  mechanical hypersensitivity: significantly attenuated
[5]; CCI rats, single intrathecal injection 100 units, 4 days after injection, continuous, FIG. 8
  mechanical hypersensitivity: continued to exhibit analgesia
[5]; CCI rats, single intrathecal injection 100 units, 6 days after injection, continuous, FIG. 8
  mechanical hypersensitivity: exhibited once again mechanical and thermal hypersensitivity

## FK-506 [reference compound]
[1]; 90 minutes after intrathecal injection, vs saline, FIG. 14
  mechanical withdrawal thresholds: significant decrease
[4]; 90 minutes after intrathecal injection, vs saline, FIG. 15
  thermal latencies: significant decrease
[6]
  calcineurin activity in PSD: significant decrease
